Experiments:
[1] = test system: compound action potential (CAP) of the auditory nerve; experiment: acute perifusion of the cochleae: effect of increasing doses on cochlear potentials (CAP); format: in vivo, guinea pigs
Description: The effect of riluzole in increasing doses was studied according to the technique of acute perifusion of the cochleae:
10 tricolor guinea pigs weighing 200 to 400 g are anesthetized by intraperitoneal injection of urethane (1.4 g/kg) and then trachetomized and artificially ventilated. The external auditory canals are incised for the putting in place of ear bars in a restraining apparatus. During the entire duration of the experiment, the electrocardiogram is monitored and the central temperature regulated by means of a heating cover at 38.5±1° C. The experiments are carried out in a soundproofed, anechoic and faradized chamber. Access to the cochlea is obtained via a ventral approach. After opening of the tympanic bulla, 3 holes 0.2 mm in diameter are manually cut in the basal turn of the cochlea: the first in the tympanic ramp to receive an infusion pipette, the second in the vestibular ramp to allow the outflow of the infused solutions out of the cochlea and the third also in the vestibular ramp to receive a recording electrode.
The cochlear potentials recorded in the vestibular ramp are stored and then numerically filtered to dissociate the compound action potential (CAP), a control for the activity of the auditory nerve and the receptor potentials obtained from the ciliated cells, namely the microphonic potential (MP) and the summation potential (SP). A low-pass filter of 2.5 kHz is used to extract the CAP whose amplitude is measured between N1 (1st negative wave) and P1 (1st positive wave) as well as the SP measured between 0 and 5 ms. A band-pass filter around 8 kHz (acoustic stimulation frequency) is used to extract the MP (6-10 kHz, filter slope: 48 db/octave).
After introducing the pipette (about 0.1 mm in diameter at the tip) into the tympanic ramp with the aid of a micromanipulator, leaktightness being provided by means of a glue ball placed near the tip, artificial perilymph is infused at the rate of 2.5 μl/min. A second infusion of artificial perilymph containing 0.1% dimethyl sulfoxide is carried out. […] These cochlear potentials are recorded immediately after each infusion. The duration of the infusions is 10 minutes.
The IC50 is observed for a dose of 300 μM (FIG. 2). In all the animals, a complete disappearance of the CAP is obtained for a dose of 500 μM.

acoustic trauma = experiment: protective effect on acoustic trauma (sound overstimulation 6 kHz, 130 dB SPL, 15 minutes); format: in vivo, guinea pigs; conditions: 500 μM in perilymph
Experimental: The protective effect on acoustic trauma was tested on 10 animals for which a preliminary infusion of artificial perilymph is carried out for 10 minutes. After evaluation of the audiometric thresholds, a second 35 minute infusion either of artificial perilymph alone (5 animals: control group) or of perilymph containing 500 μM riluzole (5 animals) is carried out. Ten minutes after the start of the second infusion, a sound overstimulation (6 kHz, 130 dB SPL) is applied for 15 minutes. Finally, a third infusion of artificial perilymph allows rinsing of the cochlea. The audiometric thresholds are then recorded. The auditory loss for each frequency induced by sound exposure is defined as the difference between the audiometric thresholds recorded before and after the sound over-exposure.

[2] = cumulative increasing doses 50 to 500 μM, intracochlear infusion

Nc1nc2ccc(OC(F)(F)F)cc2s1 [riluzole, 2-amino-6-trifluoromethoxy-benzothiazole]
IC50 ([1]; Cavia porcellus, 10 min, intracochlear infusion of cumulative increasing doses 50 to 500 μM in artificial perilymph with 0.1% dimethyl sulfoxide, 10 minutes each, read-out: IC50 for reduction of the amplitude of the compound action potential (CAP)): 300 µM
effect on CAP of the auditory nerve [1, 2]: reduction in the compound action potential (CAP) of the auditory nerve dependant on the dose
effect on latency N1 of the CAP [1, 2]: increase in the latency N1
dose for complete disappearance of the CAP ([1]; intracochlear infusion, in all the animals): 500 µM
auditory losses after sound overstimulation versus control group (acoustic trauma; 35 minute infusion, frequencies of between 8 and 16 kHz): control group exhibits, for frequencies of between 8 and 16 kHz, much higher auditory losses
histological study of the cochleae by electron microscopy: innervation (acoustic trauma; after sound overstimulation): virtually normal innervation

Source: patent US6660757B2, “Use of riluzole in the treating acoustic traumas” (Aventis Pharmaceuticals Inc., priority 1998, dated 2003)
